From patent US10654838B2, “Aminopyridine compounds useful as inhibitors of protein prenylation” (INSTITUT NATIONAL DE LA SANTE ET DE LA RECHERCHE MEDICALE …, priority 2014, dated 2020)

Experiments:
HGPS MSCs [1] = test: Live cell imaging (cell density); assay type: cell-based, human; details: 7 days
Experimental: HGPS MSCs were seeded at 2500 cells per well in 96-well plates and cultivated during 7 days in presence of the drugs. Cell density was monitored using an IncuCyte ZOOM microscope (Essen Bioscience). Each value corresponds to the mean of cell densities of four pictures taken in three independent wells.

FPPS = molecular target: T1, FPPS (Homo sapiens, UniProt P14324); test: Surface plasmon resonance on immobilized FPPS; assay type: binding
T1 sequence (P14324 1-419): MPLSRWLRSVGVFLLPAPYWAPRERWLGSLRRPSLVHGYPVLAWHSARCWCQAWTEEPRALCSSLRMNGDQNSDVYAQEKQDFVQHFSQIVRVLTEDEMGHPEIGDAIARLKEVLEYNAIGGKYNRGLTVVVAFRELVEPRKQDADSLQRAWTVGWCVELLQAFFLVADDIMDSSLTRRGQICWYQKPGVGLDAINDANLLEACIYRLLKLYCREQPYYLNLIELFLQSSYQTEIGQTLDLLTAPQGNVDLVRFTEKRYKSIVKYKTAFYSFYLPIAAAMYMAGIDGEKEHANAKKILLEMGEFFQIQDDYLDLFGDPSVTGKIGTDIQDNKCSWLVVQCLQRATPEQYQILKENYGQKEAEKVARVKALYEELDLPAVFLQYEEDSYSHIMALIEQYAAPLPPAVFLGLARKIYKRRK
Experimental: Surface plasmon resonance (SPR) was measured using a BIAcore 3000 instrument at 25° C. FPPS (2800 RU) was immobilized on flow cells of a CM5-chip. The running buffer was HBSEP pH 7.4 (20 mM Hepes, 150 mM NaCl, and 0.005% P20). Regeneration was performed with 10 mM glycine, pH 3.0. […] Data were evaluated using Scrubber2 (Biologic software) and BIAeval software (BIAcore).

FT = molecular target: T2, FT (Homo sapiens, UniProt P49354+P49356); test: FT activity assay (Farnesyltransferase [3H] SPA); assay type: biochemical; details: concentration inducing 50% of the maximum inhibiting effect of the compound
T2 construct: Reactions were started by adding 40 μL of treated or untreated cell lysate; endogenous in cells; host or cells: HGPS MSCs (cell lysate)
Experimental: Cell pellet of HGPS MSCs were resuspended in 25 mM Tris-HCl pH 7.4, 1 mM DTT, 1 mM MgCl2, 1 EDTA, 1 mM PMSF and centrifuged at 10,000×g for 10 min at 4° C. Protein content was determined using Lowry's method. Aliquots of cell lysate containing 100 μg of total proteins were incubated with tested substances at 37° C. for 30 min.
FT activity was determined by Famesyltransferase [3H] SPA enzyme assay (Amersham Life Science, Buckinghamshire, England). Briefly, FT activity was assayed in 20 μl of assay buffer containing 50 mmol/L Hepes, 30 mmol/L MgCl2, 20 mmol/L KCl and 5 mmol/L dithiothreitol, 20 μl of [3H]-FPP (12 pmol) and 20 μl of biotin lamin B. Reactions were started by adding 40 μL of treated or untreated cell lysate and incubated for 1 hour at 37° C. Reactions were stopped by the addition of 150 μL of stop reagent containing SPA bead and counted in a scintillation counter. FT activity was expressed as pmoles of incorporated [3H]-FPP into biotin lamin-B peptide per minute per milligram of total proteins (pmol/min/mg prot). Parallel samples were assayed to evaluate the total and the nonspecific radioactivity. In all experiments enzyme assays were carried out in triplicate.

HDJ2 = test: Western blot analysis of HDJ2 farnesylation; assay type: cell-based, human
HMGCR = molecular target: T3, HMGCR (Homo sapiens, UniProt P04035); test: HMGCR colorimetric activity assay; assay type: biochemical
T3 construct: oxidation of NADPH by the catalytic subunit of HMGCR in the presence of the substrate HMG CoA; purchased Sigma-Aldrich
T3 sequence (P04035 340-888 limits assumed): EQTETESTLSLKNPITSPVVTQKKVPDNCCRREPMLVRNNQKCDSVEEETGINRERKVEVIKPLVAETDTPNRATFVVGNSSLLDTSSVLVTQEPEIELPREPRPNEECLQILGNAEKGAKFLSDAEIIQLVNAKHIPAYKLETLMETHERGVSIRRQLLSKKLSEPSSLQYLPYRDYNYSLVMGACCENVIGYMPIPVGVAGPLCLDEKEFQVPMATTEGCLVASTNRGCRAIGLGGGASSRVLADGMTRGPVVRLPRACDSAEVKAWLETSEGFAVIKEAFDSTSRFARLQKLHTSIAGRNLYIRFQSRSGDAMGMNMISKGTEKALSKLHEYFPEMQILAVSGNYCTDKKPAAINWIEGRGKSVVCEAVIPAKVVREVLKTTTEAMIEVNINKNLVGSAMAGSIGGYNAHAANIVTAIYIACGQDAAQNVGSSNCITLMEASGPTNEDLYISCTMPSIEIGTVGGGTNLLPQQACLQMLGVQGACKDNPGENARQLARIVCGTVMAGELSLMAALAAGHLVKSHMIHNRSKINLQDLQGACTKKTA
Experimental: HMGCR activity was measured using GCoA Reductase Assay Kit (Sigma-Aldrich) according to the manufacturer's protocol. The assay is based on the spectrophotometric measurement of the decrease in absorbance at 340 nm, which represents the oxidation of NADPH by the catalytic subunit of HMGCR in the presence of the substrate HMG CoA.

HGPS MSCs [2] = test: Nuclear shape abnormalities (lamin A/C immunostaining); assay type: cell-based, human; details: 48 h, lamin A/C staining
Experimental: In the 4-steps protocol, cells were fixed in 4% paraformaldehyde (15 minutes, room temperature) before permeabilization and blocking in PBS supplemented with 0.1% triton X-100 and 1% BSA (Sigma-Aldrich, St. Louis, USA). Primary antibodies were incubated one hour at room temperature in blocking buffer. Antibodies included mouse anti-lamins A/C (clone JOL2, Millipore, Billerica, USA), rabbit anti-prelamin A (ANTOO45, Diatheva) and anti-Ki67 (clone Ki-S5, MAB4190, Millipore, Billerica, USA). Cells were stained with the species-specific fluorophore-conjugated secondary antibody (Invitrogen) (one hour, room temperature) and nuclei were visualized with Hoechst 33342.

prelamin A = test: Western immunoblotting of prelamin A; assay type: cell-based, human; details: HGPS MSCs, optimal concentration
Experimental: Whole-cell lysates of MSC were collected, separated by SDS-PAGE, and transferred onto PVPF membrane by liquid transfer method. Blots were blocked in 10% skim milk (Bio-Rad) in tween 0.1% tris-buffered saline (TTBS) 1× one hour at room temperature. The primary antibodies used were a mouse anti-lamins A/C 1:200 (Millipore, JOL2), a rabbit anti-prelamin A 1/100 (ANTOO45, Diatheva) and a β-actin 1/200000 (Sigma). Membranes were incubated during the night at 4° C. Antigen-antibody binding was detected using horseradish peroxidaseconjugated species-specific secondary antibodies (GE-Healthcare, Little Chalfont, UK) followed by enhanced chemiluminescence Western blotting detection reagents (Perkin-Elmer, Waltham, USA).

- direct interaction with FPPS (SPR), in words (FPPS): confirmed the direct interactions
- Kd (FPPS; SPR, BIAcore 3000, 25° C., read-out: Kd (M), equilibrium dissociation constant): 2.4e-05 M
- IC50 (FT): 3.46 µM
- IC50 (μM) HMGCR (HMGCR): No inhibition
SMILES: N#CC(c1ccccn1)c1ccnc(N2CCN(Cc3ccccc3F)CC2)n1 (centres unmarked) [Mono-AP1, {2-[4-(2-fluoro-benzyl)-piperazin-1-yl]-pyrimidin-4-yl}-pyridin-2-yl-acetonitrile]
- cytostatic effect in long term live imaging cultures (HGPS MSCs [1]): less cytostatic than the FTI tipifarnib
- unfarnesylated form of HDJ2 (HDJ2): increase of the unfarnesylated form of the protein
- rescue of nuclear shape abnormalities (HGPS MSCs [2]): restoring HGPS MSCs nuclear shape defects at levels not significantly different from the FTI tipifarnib
- prelamin A level (Western blot) (prelamin A): increased
